In one experiment the target is T1, wild-type EGFR kinase (Homo sapiens, UniProt P00533).
T1 construct: purchased Invitrogen PV3872
In words: z-lyte inhibition test against wild-type EGFR kinase.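 Also: reaction volume 10 µL holding 0.8 ng/µL enzyme and 2 µM Tyr04 substrate, with DMSO at 2% once compounds are present.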 The class given is biochemical. The note with it: 10 μM ATP, read-out: EGFR WT (IC50/nM).

In a further experiment the test system is A431 cell. Put plainly: MTT cytostatic activity, A431 cell. The settings on record: Homo sapiens, A-431; MTT, 72 h; read-out: A431 cell (IC50/nM). The class given is cell-based.
The next experiment deals with H1975 cells. In words: ELISA assay for cell activity of EGFR T790M inhibitor, H1975 cells. The settings on record: for Selective inhibitory activities against cell [IC50(A431 cell)/IC50(H1975 cell)]: ELISA, ratio of cell IC50 values; for IC50: Homo sapiens, NCI-H1975, 1 h, read-out: H1975 cell (IC50/nM). A general note: ELISA stands for enzyme-linked immunosorbent assay.

Another experiment concerns NIH3T3 cell. In words: MTT cytotoxicity against NIH3T3 cells. The class given is cell-based. The settings on record: Mus musculus, NIH3T3; cytotoxicity, MTT, 72 h; read-out: MTT assay against NIH3T3 cell (IC50/nM).
The next experiment deals with H1975 cell. In words: MTT cytostatic activity, H1975 cell.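 As to all read-outs here: cells in 96-well plates exposed to compound for 72 h, then given MTT for a further 4 h at 37 °C under 5% CO2.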 The class given is cell-based. The note with it: MTT; for IC50: Homo sapiens, NCI-H1975, 72 h, read-out: H1975 cell (IC50/nM); for Selective inhibitory activity against cells [IC50(A431 cell)/IC50(H1975 cell)]: ratio of cell IC50 values.
In the next experiment the test system is A431 cells. Put plainly: ELISA assay for cell activity, EGF-treated A431 cells.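 Also: Serum-starved A431 cells, ELISA on lysates read as OD450 minus OD570, inhibition scaled between EGF-stimulated wells (0%) and unstimulated cell control (100%), DMSO 0.5% final.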 The class given is cell-based. The note with it: Homo sapiens, A-431, compound 1 h, then EGF 45 min.

Where only a bound is given, the exact number is not on record here.

T1 sequence (P00533 25-1210): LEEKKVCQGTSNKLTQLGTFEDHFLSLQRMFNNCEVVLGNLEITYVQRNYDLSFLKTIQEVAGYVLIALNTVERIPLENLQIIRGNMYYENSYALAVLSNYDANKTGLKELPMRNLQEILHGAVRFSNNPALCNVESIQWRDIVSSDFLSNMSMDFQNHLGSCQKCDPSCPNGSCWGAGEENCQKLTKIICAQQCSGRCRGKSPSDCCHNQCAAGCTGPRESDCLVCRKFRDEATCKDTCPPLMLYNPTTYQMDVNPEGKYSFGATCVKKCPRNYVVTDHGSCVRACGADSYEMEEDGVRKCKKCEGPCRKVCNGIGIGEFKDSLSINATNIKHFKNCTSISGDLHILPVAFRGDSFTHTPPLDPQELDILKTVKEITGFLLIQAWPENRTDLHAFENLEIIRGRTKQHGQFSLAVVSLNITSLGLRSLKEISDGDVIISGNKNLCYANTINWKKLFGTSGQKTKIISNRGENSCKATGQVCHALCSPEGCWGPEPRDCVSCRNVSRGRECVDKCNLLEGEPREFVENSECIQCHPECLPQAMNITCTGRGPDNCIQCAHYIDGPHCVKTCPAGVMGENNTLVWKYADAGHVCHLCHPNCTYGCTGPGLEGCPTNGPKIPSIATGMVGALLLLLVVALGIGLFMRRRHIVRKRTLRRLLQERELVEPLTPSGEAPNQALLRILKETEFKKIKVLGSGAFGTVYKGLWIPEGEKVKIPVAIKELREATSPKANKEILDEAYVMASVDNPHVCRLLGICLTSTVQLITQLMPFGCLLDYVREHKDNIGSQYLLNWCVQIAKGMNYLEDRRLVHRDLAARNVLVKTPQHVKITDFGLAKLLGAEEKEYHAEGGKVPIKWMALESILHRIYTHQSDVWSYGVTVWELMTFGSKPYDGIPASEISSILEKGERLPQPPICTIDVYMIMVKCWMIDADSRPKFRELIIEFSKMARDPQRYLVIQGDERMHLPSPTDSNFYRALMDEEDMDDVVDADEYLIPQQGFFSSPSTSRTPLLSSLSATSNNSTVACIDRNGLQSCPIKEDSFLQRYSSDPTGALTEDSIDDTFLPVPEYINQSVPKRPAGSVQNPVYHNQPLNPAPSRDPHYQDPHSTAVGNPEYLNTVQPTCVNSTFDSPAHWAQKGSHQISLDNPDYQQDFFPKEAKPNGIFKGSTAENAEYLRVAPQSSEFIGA

In the case of `C=CC(=O)Nc1cc(Nc2ncc(Cl)c(O[C@@H]3CCN(S(C)(=O)=O)C3)n2)c(OC)cc1N1CCC(N(C)C)CC1` [Compound J-45, (R)—N-(5-(5-chloro-4-(1-(methylsulfonyl)pyrrolidine-3-oxy)pyrimidine-2-amino)-2-(4-(dimethylamino)piperidine-1-yl)-4-methoxyphenyl)acrylamide], the IC50 at wild-type EGFR kinase is 41 nM; in the experiment with A431 cell it was 2740 nM; in the experiment with H1975 cells, 18 nM; with NIH3T3 cell, 8200 nM; in the experiment on H1975 cell it was 19 nM; in the experiment with A431 cells, 784 nM. For the same compound, in the experiment with H1975 cells, the “Selective inhibitory activities against cell [IC50(A431 cell)/IC50(H1975 cell)]” value (from here on “Selective inhibitory activities”) came out at 44. For the same compound, the “Selective inhibitory activity against cells [IC50(A431 cell)/IC50(H1975 cell)]” value (“Selective inhibitory activity” for short) with H1975 cell amounted to 144.1.
In the case of `C=CC(=O)Nc1cc(Nc2nccc(OC3CN(c4cnc5c(ccn5C)c4)C3)n2)c(OC)cc1N1CCC(N(C)C)CC1` [Compound J-18], the IC50 is 30 nM on wild-type EGFR kinase; 2960 nM with A431 cell; 256 nM in the experiment on H1975 cells; 184 nM with H1975 cell; 1100 nM in the experiment with A431 cells. In addition, in the experiment with H1975 cells, the “Selective inhibitory activities” value turned out to be 4.3. The “Selective inhibitory activity” value in the experiment on H1975 cell is on record as 16.1.
For `C=CC(=O)Nc1cc(Nc2ncc(Cl)c(OC3CN(C(C)=O)C3)n2)c(OC)cc1N1CCC(N(C)C)CC1` [Compound J-27], the IC50 at wild-type EGFR kinase worked out at 114 nM; in the experiment with A431 cell, 3050 nM; in the experiment on H1975 cells it was 30 nM; in the experiment on NIH3T3 cell, 9830 nM; with H1975 cell it was 57 nM; in the experiment with A431 cells, 2550 nM. In addition, the “Selective inhibitory activities” value in the experiment with H1975 cells worked out at 85. For the same compound, the “Selective inhibitory activity” value in the experiment on H1975 cell came out at 53.6.
Take `C=CC(=O)Nc1cc(Nc2ncc(Cl)c(OC3CN(S(C)(=O)=O)C3)n2)c(OC)cc1N(C)CCN(C)C` [Compound J-11, N-(5-(5-chloro-4-(1-(methylsulfonyl)azetidine-3-oxy)pyrimidine-2amino)-2-((2-(dimethylamino)ethyl)(methyl)amino)-4-methoxyphenyl)acrylamide]: the IC50 on wild-type EGFR kinase was 12 nM; with A431 cell, 1580 nM; in the experiment on H1975 cells, 38 nM; in the experiment with NIH3T3 cell, more than 10000 nM; in the experiment on H1975 cell it was 14 nM; in the experiment with A431 cells, 379 nM. For the same compound, the “Selective inhibitory activities” value in the experiment with H1975 cells was found to be 10. For the same compound, the “Selective inhibitory activity” value in the experiment on H1975 cell is 113.
Turning to `C=CC(=O)Nc1cc(Nc2ncc(Cl)c(O[C@H]3CCN(C(C)=O)C3)n2)c(OC)cc1N1CCC(N(C)C)CC1` [Compound J-48], the IC50 on wild-type EGFR kinase is 610 nM; with A431 cell, 4620 nM; in the experiment with H1975 cells, 102 nM; in the experiment on NIH3T3 cell, more than 10000 nM; in the experiment on H1975 cell it was 56 nM; in the experiment with A431 cells, 3790 nM. In the experiment on H1975 cells, the “Selective inhibitory activities” value is 37.1. Also, the “Selective inhibitory activity” value with H1975 cell was 82.4.
With `C=CC(=O)Nc1cc(Nc2ncc(Cl)c(O[C@@H]3CCN(C(C)=O)C3)n2)c(OC)cc1N1CCC(N(C)C)CC1` [Compound J-47], the IC50 on wild-type EGFR kinase was 227 nM; in the experiment on A431 cell, 7380 nM; with H1975 cells it was 97 nM; with NIH3T3 cell, more than 10000 nM; in the experiment with H1975 cell, 46 nM; in the experiment with A431 cells, 2740 nM. The “Selective inhibitory activities” value in the experiment on H1975 cells was 28.2. Also, the “Selective inhibitory activity” value in the experiment with H1975 cell worked out at 160.5.
As for `C=CC(=O)Nc1cc(Nc2ncc(Cl)c(OC3CCCN(S(C)(=O)=O)CC3)n2)c(OC)cc1N1CCC(N(C)C)CC1` (stereo not shown) [Compound J-37], the IC50 at wild-type EGFR kinase is 22 nM; in the experiment with A431 cell it was 2140 nM; in the experiment on H1975 cells, 36 nM; in the experiment on NIH3T3 cell, more than 10000 nM; in the experiment on H1975 cell, 27 nM; in the experiment on A431 cells, 919 nM. In addition, the “Selective inhibitory activities” value in the experiment on H1975 cells is 26. Besides, in the experiment on H1975 cell, the “Selective inhibitory activity” value came out at 79.4.
Take `C=CC(=O)Nc1cc(Nc2ncc(Cl)c(OC3CN(S(C)(=O)=O)C3)n2)c(OC)cc1N1CCN(C)CC1` [Compound J-70, N-(5-(5-chloro-4-(1-(methylsulfonyl)azetidine-3-oxy)pyrimidine-2-amino)-4-methoxy-2-(4-methylpiperazine-1-yl)phenyl)acrylamide]: the IC50 is 14 nM on wild-type EGFR kinase; 971 nM with A431 cell; 13 nM in the experiment on H1975 cells; more than 10000 nM in the experiment on NIH3T3 cell; 6 nM with H1975 cell; 460 nM in the experiment on A431 cells. Besides, the “Selective inhibitory activities” value in the experiment on H1975 cells is on record as 35.4. Moreover, in the experiment on H1975 cell, the “Selective inhibitory activity” value came out at 162.
Regarding `C=CC(=O)Nc1cc(Nc2ncc(Cl)c(OC3CCN(C(C)=O)CC3)n2)c(OC)cc1N1CCC(N(C)C)CC1` [Compound J-38], the IC50 at wild-type EGFR kinase is 170 nM; with A431 cell, 4670 nM; in the experiment on H1975 cells it was 75 nM; with NIH3T3 cell, more than 10000 nM; in the experiment with H1975 cell it was 66 nM; in the experiment with A431 cells, 4490 nM. Besides, the “Selective inhibitory activities” value in the experiment with H1975 cells came out at 60. Further, the “Selective inhibitory activity” value in the experiment with H1975 cell is on record as 71.
As for `C=CC(=O)Nc1cc(Nc2ncc(F)c(OC3CN(C(C)=O)C3)n2)c(OC)cc1N1CCC(N(C)C)CC1` [Compound J-30], the IC50 on wild-type EGFR kinase is 95 nM; with A431 cell it was 6010 nM; in the experiment with H1975 cells it was 113 nM; in the experiment with NIH3T3 cell it was more than 10000 nM; with H1975 cell, 121 nM; in the experiment on A431 cells, 1910 nM. The “Selective inhibitory activities” value in the experiment with H1975 cells turned out to be 17. Moreover, the “Selective inhibitory activity” value in the experiment on H1975 cell is given as 50.
`C=CC(=O)Nc1cc(Nc2ncc(C(F)(F)F)c(OC3CN(S(C)(=O)=O)C3)n2)c(OC)cc1N1CCC(N(C)C)CC1` [Compound J-31]: the IC50 at wild-type EGFR kinase was 27 nM; in the experiment on A431 cell it was 1720 nM; with H1975 cells it was 5 nM; in the experiment with NIH3T3 cell, more than 3000 nM; with H1975 cell, 4 nM; in the experiment on A431 cells, 419 nM. For the same compound, the “Selective inhibitory activities” value in the experiment with H1975 cells is 84. In addition, the “Selective inhibitory activity” value with H1975 cell was determined as 429.
Take `C=CC(=O)Nc1cc(Nc2ncc(Cl)c(OC3CCN(S(C)(=O)=O)CC3)n2)c(OC)cc1N1CCC(N(C)C)CC1` [Compound J-39]: the IC50 at wild-type EGFR kinase is 39 nM; with A431 cell, 4300 nM; in the experiment on H1975 cells, 123 nM; with NIH3T3 cell, more than 10000 nM; with H1975 cell it was 72 nM; in the experiment with A431 cells, 1320 nM. Further, the “Selective inhibitory activities” value in the experiment with H1975 cells was 11. Besides, the “Selective inhibitory activity” value in the experiment on H1975 cell came to 60.
Take `C=CC(=O)Nc1cc(Nc2nccc(OC3CCCN(S(C)(=O)=O)CC3)n2)c(OC)cc1N(C)CCN(C)C` (stereo not shown) [Compound J-36]: the IC50 at wild-type EGFR kinase was 17 nM; in the experiment on A431 cell, 3260 nM; in the experiment with NIH3T3 cell it was more than 10000 nM; in the experiment with H1975 cell, 69 nM. In addition, the “Selective inhibitory activity” value in the experiment on H1975 cell was found to be 47.3.
For `C=CC(=O)Nc1cc(Nc2nccc(OC3CN(S(=O)(=O)c4ccccc4)C3)n2)c(OC)cc1N(C)CCN(C)C` [Compound J-7, N-(2-((2-(dimethylamino)ethyl)(methyl)amino)-4-methoxy-5-(4-(1-(phenylsulfonyl)azetidine-3-oxy)pyrimidine-2-amino)phenyl)acrylamide], the IC50 was 989 nM in the experiment on A431 cell; 70 nM with H1975 cells; more than 10000 nM in the experiment with NIH3T3 cell; 66 nM with H1975 cell; 234 nM with A431 cells. In the experiment with H1975 cells, the “Selective inhibitory activities” value turned out to be 3.3. Also, in the experiment with H1975 cell, the “Selective inhibitory activity” value was 15.
For `C=CC(=O)Nc1cc(Nc2nccc(C3CN(c4cnc5c(cnn5C)c4)C3)n2)c(OC)cc1N(C)CCN(C)C` [compound 2, reference compound], the IC50 is 5060 nM with A431 cell, 1340 nM with H1975 cells, 359 nM in the experiment on H1975 cell and 1760 nM in the experiment on A431 cells. Besides, the “Selective inhibitory activities” value with H1975 cells came out at 1.3. The “Selective inhibitory activity” value with H1975 cell is 14.1.
For the compound `C=CC(=O)Nc1cc(Nc2nccc(OC3CN(S(C)(=O)=O)C3)n2)c(OC)cc1N1CCC(N(C)C)CC1` [Compound J-10, N-(2-(4-(dimethylamino)piperidine-1-yl)-4-methoxy-5-(4-(1-(methylsulfonyl)azetidine-3-oxy)pyrimidine-2-amino)phenyl)acrylamide], the IC50 was 596 nM in the experiment on A431 cell, more than 10000 nM in the experiment on NIH3T3 cell and 31 nM in the experiment with H1975 cell. Moreover, the “Selective inhibitory activity” value with H1975 cell is listed as 19.2.
As to `C=CC(=O)Nc1cc(Nc2ncc(Cl)c(OC3CN(CCF)C3)n2)c(OC)cc1N1CCC(N(C)C)CC1` [Compound J-54], the IC50 is 376 nM on wild-type EGFR kinase, 6080 nM in the experiment on A431 cell, more than 10000 nM with NIH3T3 cell and 92 nM in the experiment with H1975 cell. Besides, in the experiment with H1975 cell, the “Selective inhibitory activity” value is given as 66.1.
The matching figures for `C=CC(=O)Nc1cc(Nc2nccc(OC3CN(C(C)=O)C3)n2)c(OC)cc1N1CCC(N(C)C)CC1` [Compound J-20]: 69 nM, 5350 nM, more than 10000 nM, 138 nM and 38.8.
